For this data set the following is noted: rat; liver microsomes; pH 7.4; 15.0 min; 1.0 µM.

As a reminder, the half-life is how long it takes for the measured level to halve. A lower half-life goes with rapid decline. `CC(C)c1ccc(Nc2c(-c3ccccn3)nc3ccccn23)cc1`: the half-life is 2.1 min. Under `O=c1cc(-c2ccc(O)c(O)c2)oc2cc(O)cc(O)c12` stands greater than 30 min; under `COc1ccc(-n2nc(C)c([C@@H]3C=C[C@@H](NCc4cccc(Cl)c4)C3)c2C)cc1`, 4.19 min; under `CCCNC(=O)Nc1ccc(Oc2ncnc3cc(OC)c(OC)cc23)cc1Cl`, greater than 30 min. In the case of `COc1ccccc1-c1cc2c(ccn2C)c(C(=O)NCC2CCN(C)C(=O)C2)n1` (stereo not drawn), the half-life is greater than 30 min. Turning to `Cc1cccc(-c2csc(N3CCC(C(N)=O)CC3)n2)c1`, the half-life stood at 1.66 min. On to `Fc1cc(Nc2nc(-c3ccncc3)nc3ccccc23)ccc1OCC(F)(F)F`, for which the half-life worked out at 28 min. Under `O=C(NCCN1CCOCC1)C1CC(=O)N(c2n[nH]c3cc(Br)ccc23)C1` (stereo not drawn) stands greater than 30 min; under `COc1cc(Cl)cn2c(-c3cccc(NC4CNC4)n3)cnc12`, greater than 30 min; under `Cn1ccc2c(C(=O)NCc3cccnc3)nc(-c3ccc(CO)cc3)cc21`, 15.7 min.

The compound `CNC1(c2ccccc2Cl)CCCCC1=O` (stereo not drawn) registered a half-life of 4.44 min.

`CN(c1ncccc1CNc1nc(Nc2ccc3c(c2)CC(=O)N3)ncc1C(F)(F)F)S(C)(=O)=O` gave a half-life greater than 30 min.

`Cc1noc(C)c1-c1ccc2ncnc(NC(C)c3ccccc3)c2c1` (stereo not drawn) came in with a half-life of 7.65 min. `FC(F)(F)c1ccccc1-c1nc(NCc2cccs2)c2ccccc2n1` returned a half-life of 2.5 min. Consider `Cc1ccc2oc(NC3=NC(c4[nH]ncc4Cl)C4=C(CCCC4=O)N3)nc2c1` (stereo not drawn), for which the half-life is 1.7 min. `Cc1ccc(C)c(CN2C(=O)c3ccccc3S(=O)c3ccc(C(=O)N4CCN(c5ccccc5F)CC4)cc32)c1` (stereo not drawn) yielded a half-life of 2.32 min. Under `COc1ccc(-n2nc(C3CCCN(C(=O)C4CC4)C3)[nH]c2=O)cc1` (stereo not drawn) stands greater than 30 min; under `O=C(Nc1nc(-c2ccccc2)cs1)c1ccncc1NS(=O)(=O)c1cccnc1`, 20 min; under `CCc1ccc(NC(=O)c2[nH]c(C)c(C(C)=O)c2C)cc1[S+](=O)([O-])N1CCCCCC1`, 2.1 min.

With `CC1=Nc2cc(C(=O)NC3CCCC3)ccc2Sc2ccc(C)cc21`, the half-life was 3.31 min. On to `O=C(O)CCNc1cc(N2CCc3ccccc3CC2)nc(-c2cccnc2)n1`, for which the half-life was greater than 30 min. In the case of `CC[C@@]1(O)C(=O)OCc2c1cc1n(c2=O)Cc2cc3ccccc3nc2-1`, the half-life is greater than 30 min.

In the case of `c1ccc(Nc2cc3c(cn2)CN(Cc2ccc4[nH]ccc4c2)CCN3)cc1`, the half-life turned out to be 2.09 min. `CN1Cc2c(ccc3c2OCO3)[C@@H]2[C@H]1c1cc3c(cc1C[C@@H]2O)OCO3` registered a half-life of 2.12 min. As to `Cc1cc(C)nc(NC(=S)N2CCN(c3ccc(Cl)cc3F)CC2)c1`, the half-life is greater than 30 min. Turning to `CCOc1cc(CNc2ccc(O)cc2)ccc1OCc1ccc(Cl)cc1`, the half-life was 3.84 min. In turn, `CC(C)c1ccccc1-c1ncc(F)c(NC2(c3ccc(-c4cccnc4)cc3)CC2)n1` returned a half-life of 8.9 min. In turn, `COC(=O)c1ccc(NS(=O)(=O)c2c(C)nc3sccn3c2=O)cc1` had a half-life of 3.88 min. Under `O=C(Nc1ccc(Cl)cc1)C(NS(=O)(=O)c1cccs1)c1ccccc1` (stereo not drawn) stands 5.38 min; under `NC(=O)C1CCN(c2nnc(-c3ccc4c(c3)OCCCO4)s2)CC1`, greater than 30 min. In the case of `Cc1ccc(S(=O)(=O)Nc2ccccc2C(=O)Nc2ncc(-c3ccccc3)o2)cc1` it was 3.5 min; in that of `NC(=O)C1CCN(c2nc(-c3ccc4occc(=O)c4c3)cs2)CC1`, 6.19 min. The compound `O=C(Nc1ccc(OC(F)(F)F)cc1)c1sccc1NCc1ccnc2ccccc12` registered a half-life of 18.7 min. `Cc1ccccc1S(=O)(=O)N1CCc2cc(-c3nc(NC(=O)Cc4ccc5c(c4)OCO5)sc3C)ccc21` returned a half-life of 5 min. Compared with the last compound, the half-life is about 3.7-fold lower. For the compound `COc1ccc(CNC(=O)c2sc3nc(C)cc(C)c3c2N)cc1`, the half-life turned out to be 8.47 min. Under `Cc1ccc(S(=O)(=O)Nc2ccc(C(=O)Nc3nc(-c4ccccc4)cs3)c(Cl)c2)cc1` stands 23 min; under `C[C@@H](c1ccc2nccn2c1)n1nnc2ncc(-c3cnn(C)c3)nc21`, greater than 30 min. On to `COc1cccc(CN2CCCC(c3nc(-c4ccncc4)ncc3-c3ccccc3)C2)c1O` (stereo not drawn), for which the half-life is 5.95 min.

Turning to `COc1ccc(Cn2c(=O)[nH]c3cc(C(=O)NCCCN4CCCCC4)ccc3c2=O)cc1`, the half-life is greater than 30 min. Under `CNc1ncc(-c2cccc3ccccc23)o1` stands 9.9 min; under `O=C(Cc1ccc(O)cc1)N1CC(CNc2ccccc2)C2(C1)CN(c1ccccc1)C2` (stereo not drawn), 9.42 min. Consider `Cc1noc(C)c1C(=O)N1CCC2(CC1)CCN(C(c1ccccc1)c1ccccc1)CC2`, for which the half-life is 9.4 min. In the case of `CC(C)(C)OC(=O)NC1CCN(c2nc(-c3ccc(Br)cc3)cs2)CC1` it was greater than 30 min; in that of `CC(C)c1ccccc1-c1ncc(F)c(NC(C)(C)c2ccc(-n3ccnn3)cc2)n1`, 1.6 min; in that of `O=C(Nc1ccc(Cl)cc1)Nc1ccc(Cl)c(Cl)c1`, greater than 30 min. `Oc1ccc(CNc2ccc(C(F)(F)F)cc2F)c2cccnc12`: the half-life was found to be 5.53 min. Turning to `CCCc1ccc(NC(=O)c2ccc3c(c2)NC(=O)CS3)cc1`, the half-life worked out at 1.5 min. Compound `CCCc1oc2ccc(NS(=O)(=O)c3ccc(OC)cc3)cc2c1C(=O)OCC` displayed a half-life of 1.37 min. The half-life values of the last two compounds are within 1.5-fold of each other. The compound `COCC(C)NCc1cc2ccc(OC)cc2nc1N1CCN(c2ccc(F)cc2)CC1` (stereo not drawn) registered a half-life of 10.4 min. As for `O=C1NCc2cc(-c3cc4c(ccn4Cc4ccncc4)c(N4CCOCC4)n3)ccc21`, the half-life turned out to be 13.4 min. In the case of `CCCNC(=O)c1ccc2c(c1)N=C(C)c1c(C)ccc(C)c1S2` it was 1.34 min. `O=S(=O)(Nc1cccc2ccccc12)c1ccc(NCc2cccc(Cl)c2O)cc1` registered a half-life of 4.3 min. `CCCCn1cc2c(c1-c1ccc(Br)cc1)c(=O)n(C)c(=O)n2C`: the half-life was found to be 7.68 min. In turn, `Cc1c([C@@H](C)C2NC[C@H](C)C[C@@H]2O)ccc2c1C[C@@H]1[C@H]2CC=C2C[C@@H](O)CC[C@@]21C` (stereo partly drawn) showed a half-life greater than 30 min.

In turn, `COc1cc(C2CC(=O)Nc3cc4c(cc32)OCCO4)cc(Br)c1OC` (stereo not drawn) came in with a half-life of 2.55 min. In turn, `CCCC1=Nc2cc(C(=O)NC3CCCC3)ccc2Sc2ccc(C)cc21` returned a half-life of 1.41 min. `O=C(NC1CCCc2c1cnn2-c1ccc(F)cc1F)c1ccccc1` (stereo not drawn) yielded a half-life greater than 30 min. The compound `O=S(=O)(Nc1ccccc1N1CCCCC1)c1ccc(Cl)s1` had a half-life of 2.02 min.

`O=C(O)CCC(=O)Nc1nc(-c2ccccc2)cs1` came in with a half-life greater than 30 min. As to `Cc1nnc(-c2ccccc2C(C)C)nc1NCc1ccc(-c2cccnc2)cc1`, the half-life amounted to 5.8 min. With `CC(=O)N1CCc2c(sc3c2c(=O)n(-c2ccccc2)c(=O)n3Cc2cccc(C(F)(F)F)c2)C1`, the half-life was determined as 25 min.

`O=C(Nc1ccc2c(N3CCOCC3)ncnc2c1)c1cccc(Br)c1` gave a half-life of 10.1 min. With `Cc1cccc(CN2CCN(c3ccccn3)CC2)c1`, the half-life worked out at 2.4 min. As for `C#CCNC(=O)c1nc(-c2cccnc2)c2ccccn12`, the half-life was 14.8 min.

Consider `CCOc1ccc(C2c3c(oc4ccc(C)cc4c3=O)C(=O)N2CCCN(C)C)cc1` (stereo not drawn), for which the half-life was determined as 13.6 min. The half-life values of the last two compounds are within 1.5-fold of each other.

`COc1cccc(CNc2ccc(S(=O)(=O)Nc3ncccn3)cc2)c1O`: the half-life was greater than 30 min. For `Cc1ccccc1C(=O)N1CCc2cc(N3CCC(NC(=O)Cc4ccccc4)C3)ccc21` (stereo not drawn), the half-life amounted to 11 min. Turning to `O=C(NC1CC1)c1ccc(CSCc2ccccc2Cl)o1`, the half-life was determined as 1.74 min. This half-life is about 6.3-fold lower than that of the compound before.

`Cc1nc(Sc2nnnn2C)c2c(-c3ccccc3)csc2n1` displayed a half-life of 1.6 min. In the case of `COc1cccc(C(=O)Nc2nc(-c3nnn(-c4cccc(Cl)c4C)c3C)ns2)c1` it was 18.6 min; in that of `CC1=C(C(=O)NC2CCCCC2)C(c2ccccc2Br)N=C(Nc2nc3ccccc3o2)N1` (stereo not drawn), 7.4 min. `COc1ccc(-c2nc(-c3c(C)noc3C)cc3c2cc(C)n3CCN(C)C)cc1OC`: the half-life is greater than 30 min. In the case of `CCn1c(C(=O)NCCc2ccc(OC)cc2)cc2sccc21` it was 1.9 min.

Take `Cn1nnnc1Sc1ncnc2sc(-c3ccccc3)cc12`: the half-life came to 12.3 min. In the case of `CC1=C(C(=O)Nc2ccccc2)C(c2ccc[nH]2)n2ncnc2N1` (stereo not drawn) it was greater than 30 min; in that of `Cc1ccc(NC(=O)N(Cc2cn(C)c3ccccc23)C2CCCCC2)cc1C`, 1.95 min.

The compound `Cn1ccc2c(C(=O)NCCC(N)=O)nc(-c3cccc(CO)c3)cc21` came in with a half-life greater than 30 min. In the case of `Oc1ccc(CNc2cccc(F)c2)c2cccnc12` it was 4.1 min; in that of `CCOc1ccccc1C(=O)Nc1cccnc1C(=O)Nc1cccc(S(=O)(=O)C(F)(F)F)c1`, greater than 30 min; in that of `CC(=O)N1CCc2c(sc3c2c(=O)n(-c2ccccc2)c(=O)n3CC(=O)c2ccccc2)C1`, greater than 30 min. In the case of `Brc1ccc(-c2csc(N3CCNCC3)n2)cc1`, the half-life turned out to be 3.31 min. As to `Cc1ccc(S(=O)(=O)Nc2ccc(C(=O)Nc3ncc(-c4ccccc4)s3)cc2)cc1`, the half-life is 11 min. For `Cn1nnnc1Sc1ncnc2scc(-c3ccc(F)cc3)c12`, the half-life turned out to be 10.7 min. Consider `O=C1CCc2ccc(OCCCCN3CCN(c4cccc(Cl)c4Cl)CC3)cc2N1`, for which the half-life amounted to 2.56 min.

The compound `O=C(Nc1ncc(Cc2ccc(C(F)(F)F)cc2)s1)c1cnc(-c2ccccc2)[nH]1` displayed a half-life greater than 30 min.

In turn, `O=C(CNC12CC3CC(CC(C3)C1)C2)c1ccc(Cl)cc1` had a half-life of 2.2 min. Take `COc1cccc(C(=O)Nc2nc(-c3nnn(-c4cc(C)ccc4C)c3C)ns2)c1`: the half-life stood at 17.6 min. Against the preceding compound, the half-life is about 8-fold higher. In turn, `O=C(Nc1ncc(Cc2ccc(C(F)(F)F)cc2)s1)c1ccc(-c2ccccc2)o1` came in with a half-life greater than 30 min.

Turning to `COc1cccc(CN(C)c2ccc([S+](=O)([O-])Nc3nccs3)cc2)c1O`, the half-life is greater than 30 min. `O=c1cc(CN2CCCN(c3ccc(C(F)(F)F)cn3)CC2)nc2ccccn12` showed a half-life of 8.7 min.

`Cc1ccc(-c2nc(C)c(C(=O)Nc3ccc4c(c3)C(=O)N3CCC[C@H]3C(=O)N4)s2)cc1`: the half-life stood at 27.2 min. Compound `O=C(O)c1ccc(O)c2ncc(N3CCCN(CCc4cccc5ccccc45)CC3)cc12` gave a half-life greater than 30 min. `COC(=O)c1nc(-c2cccc3ccccc23)oc1OC` had a half-life of 14 min.
